Measurements as given in ChEMBL document CHEMBL1152937, “Carbonic anhydrase inhibitors. Inhibition and homology modeling studies of the fungal beta-carbonic anhydrase from Candida albicans with sulfonamides” (Bioorg Med Chem, 2009).

Target: T1, Carbonic anhydrase (Candida albicans (strain SC5314 / ATCC MYA-2876) (Yeast), UniProt Q5AJ71)
T1 sequence (Q5AJ71 whole entry): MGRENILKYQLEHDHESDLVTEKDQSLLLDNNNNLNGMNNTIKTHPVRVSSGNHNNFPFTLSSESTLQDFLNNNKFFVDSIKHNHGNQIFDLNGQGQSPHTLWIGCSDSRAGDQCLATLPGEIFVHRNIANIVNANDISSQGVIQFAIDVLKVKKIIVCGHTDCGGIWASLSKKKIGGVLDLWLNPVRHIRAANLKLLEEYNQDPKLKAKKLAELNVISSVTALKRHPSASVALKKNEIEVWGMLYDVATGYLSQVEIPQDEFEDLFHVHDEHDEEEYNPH

Row | SMILES | Ki [µM]
1 | Nc1ccc(S(=O)(=O)NCc2ccc(S(N)(=O)=O)cc2)cc1 | 1.31
2 | Nc1cc(Cl)c(S(N)(=O)=O)cc1S(N)(=O)=O | 0.874
3 | Nc1ccc(S(=O)(=O)Nc2nnc(S(N)(=O)=O)s2)cc1 | 1.09
4 | NS(=O)(=O)c1nnc(-c2ccccc2Cl)s1 | 1.29
5 | Nc1nccc(Nc2ccc(S(N)(=O)=O)cc2)n1 | 1.11
6 | Nc1ccc(S(N)(=O)=O)cc1Br | 0.408
7 | Cn1nc(S(N)(=O)=O)sc1=N | 1.37
8 | NS(=O)(=O)c1ccc(CCO)cc1 | 1.21
9 | Nc1ccc(S(N)(=O)=O)cc1F | 1.24
10 | NS(=O)(=O)c1ccc(CO)cc1 | 0.383
11 | NCCc1ccc(S(N)(=O)=O)cc1 | 3.2
12 | Nc1ccc(S(N)(=O)=O)cc1Cl | 1.34
13 | Nc1ccc(S(=O)(=O)NCCc2ccc(S(N)(=O)=O)cc2)cc1 | 0.727
14 | Nc1cc(C(F)(F)F)c(S(N)(=O)=O)cc1S(N)(=O)=O [2,4-DISULFAMYLTRIFLUOROMETHYLANILINE] | 6.11
15 | NS(=O)(=O)c1nnc(NS(=O)(=O)c2ccccc2)s1 [BENZOLAMIDE] | 1.51
16 | CCN[C@H]1CN(CCCOC)S(=O)(=O)c2sc(S(N)(=O)=O)cc21 [BRINZOLAMIDE] | 1.1
17 | NS(=O)(=O)c1ccc(C(=O)O)cc1 [CARZENIDE] | 0.861
18 | Cc1ccc(-c2cc(C(F)(F)F)nn2-c2ccc(S(N)(=O)=O)cc2)cc1 [CELECOXIB] | 1.02
19 | NCc1ccc(S(N)(=O)=O)cc1 [MAFENIDE] | 1.11
20 | O=C1NS(=O)(=O)c2ccccc21 [SACCHARIN] | 0.736
21 | Nc1ccc(S(N)(=O)=O)cc1 [SULFANILAMIDE] | 7.63
22 | CC1(C)O[C@@H]2[C@@H](CO[C@@]3(COS(N)(=O)=O)OC(C)(C)O[C@@H]23)O1 [TOPIRAMATE] | 1.11
